In patent US9790173B2, “Alpha-7 nicotinic acetylcholine receptor modulators and uses thereof-I” (MERCK SHARP & DOHME CORP., priority 2012, dated 2017):

How the values were obtained:
rat α7 nAChRs = molecular target: T1, rat α7 nAChRs (Rattus norvegicus, UniProt Q05941); assay: Automated planar patch clamp (Patchliner) electrophysiology, α7 nAChR PAM activity; type: cell-based; parameters: key to Type I or Type II: I: Type 1 predominately affects the peak current; Type II modulators affect the peak current and also delay the desensitization of the receptor; conditions: for activation at 3 µM: GH4-C1, 3 μM compound in the presence of acetylcholine, GH4C1 cells expressing rat α7 nAChRs, peak current, read-out: Peak potentiation at 3 μM compound; for Type I or Type II: modulator type based on the electrophysiology trace
T1 construct: expressed in transfected cells; host or cells: GH4C1 cells (rat pituitary line) stably expressing α7 nAChR
T1 sequence (Q05941 23-502): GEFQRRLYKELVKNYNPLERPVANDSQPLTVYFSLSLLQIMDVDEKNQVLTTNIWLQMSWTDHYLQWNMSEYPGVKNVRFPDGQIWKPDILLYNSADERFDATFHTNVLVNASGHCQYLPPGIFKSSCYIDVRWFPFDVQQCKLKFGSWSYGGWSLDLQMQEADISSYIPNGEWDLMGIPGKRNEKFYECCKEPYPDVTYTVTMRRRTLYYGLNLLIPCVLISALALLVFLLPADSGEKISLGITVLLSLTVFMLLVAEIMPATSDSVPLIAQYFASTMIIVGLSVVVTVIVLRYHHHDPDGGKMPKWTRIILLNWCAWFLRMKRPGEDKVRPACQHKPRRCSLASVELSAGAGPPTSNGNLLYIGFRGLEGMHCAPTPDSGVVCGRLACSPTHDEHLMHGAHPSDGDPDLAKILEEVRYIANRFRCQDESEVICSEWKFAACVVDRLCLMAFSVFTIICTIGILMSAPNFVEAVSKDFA
Protocol: Tested compounds were prepared by serial dilutions of 10 mM stock solution in DMSO to concentrations of the compound 1000 times higher than its final concentration. The DMSO stock solutions were then diluted 1:100 in the recording buffer bringing DMSO concentration to 1%. These intermediate solutions were further diluted 10 times with buffer to obtain final concentrations and lower DMSO concentration to 0.1%. […]
Compounds of the invention may be evaluated by electrophysiology using a Patchliner® (Nanion Technologies GmbH, Germany), an automated planar patch-clamp platform of medium throughput was used as a first step in electrophysiological assessment of α7 nAChR positive allosteric modulators (PAMs).
Briefly, intracellular (KCl—50 mM, NaCl—10 mM, KF—60 mM, EGTA—20 mM, HEPES—10 mM, pH—7.2, 285 mOsmol) and extracellular (NaCl—140 mM, KCl—4 mM, CaCl2—2 mM, MgCl2—1 mM, HEPES—10 mM, D-Glucose—5 mM, pH—7.4, 298 mOsmol) solutions were automatically pipetted onto NPC-16 chip (medium resistance ˜2.5-2.6 MΩ). Suspension of GH4C1 cells expressing rat α7 nAChRs was introduced in 4 wells of a medium resistance chip and suction was applied to attract cells in the holes. The extracellular solution was subsequently exchanged to high calcium solution (NaCl—80 mM, KCl—3 mM, CaCl2—45 mM, HEPES—10 mM, pH—7.4, 298 mOsmol) followed by gigaohm seal formation and obtaining whole-cell configuration. The rest of protocol was carried out in the high-calcium recording solution. Holding potential was −70 mV throughout the protocol. A control response to 60 or 100 μM of ACh was obtained first. Next, a cell was pre-incubated with compound of interest at 3 μM for ˜30 s after which the compound was co-applied with acetylcholine.
Amplitude of the responses was measured in HEKA Patchmaster software (HEKA Elektronik, Germany) and percentage of potentiation calculated. Recording was repeated […] a minimum of two replicates had been obtained per compound.
Compounds shown in Table 1 were evaluated by automated planar patch clamp on the Patchliner® as described in Example P2.1. […] The compounds are designated either as Type I or Type II modulators based on the electrophysiology trace. Type 1 predominately affects the peak current. Type II modulators affect the peak current and also delay the desensitization of the receptor.

mice = assay: T-maze Continuous Alternation Task (T-CAT), scopolamine-induced cognitive impairment; type: in vivo; conditions: mouse; dosed orally at 10 mg/kg; scopolamine-induced deficit
Excerpt: The T-maze Continuous Alternation Task (T-CAT) measures spontaneous alternation, which is the innate tendency of mice to alternate free choices in a T-maze over a series of successive runs. This sequential procedure relies on working memory and is sensitive to various pharmacological manipulations affecting memory processes.
The T-maze apparatus is made of gray Plexiglas with a main stem (55 cm long×10 cm wide×25 cm high) and two arms (30 cm long×10 cm wide×25 cm high) positioned at 90 degree angle relative to the main stem. A start box (15 cm long×10 cm wide) is separated from the main stem by a sliding door. Sliding doors are also provided to close specific arms during the forced-choice alternation task.
The experimental protocol consists of one single session, which starts with 1 “forced-choice” trial, followed by 14 “free-choice” trials. In the first “forced-choice” trial, the animal is confined for 5 s in the start arm and then it is released while either the left or right goal arm is blocked by a sliding door. The animal will negotiate the maze, eventually enter the open goal arm, and return to the start position. Immediately after the return to the start position, the left or right goal door is opened and the animal is allowed to choose freely between the left and right goal arm (“free choice” trials). The animal is considered to have entered an arm when it places four paws in the arm. A session is terminated and the animal is removed from the maze as soon as 14 free-choice trials have been performed or 10 minutes have elapsed, whichever event occurs first. The percentage of alternation over the 14 free-choice trials is determined for each mouse and is used as an index of working memory performance. This percentage is defined as entry in a different arm of the T-maze over successive visits (i.e., left-right-left-right, etc).
Scopolamine administered 20 minutes prior the initiation of the T-maze session is used to induce disruption in the spontaneous alternation of mice. Test compounds are administered 60 minutes prior the start of the T-maze session in order to evaluate their ability to reverse the scopolamine effect.
The apparatus is cleaned between each animal using alcohol (70°). Urine and faeces are removed from the maze. During the trials, animal handling and the visibility of the operator are minimized as much as possible.
The compounds were dosed orally at 10 mg/kg.

SMILES | activation at 3 µM (rat α7 nAChRs) | Type I or Type II (rat α7 nAChRs) | T-maze % control at 10 mg/kg (mice) | melting point
NS(=O)(=O)c1ccc([C@H]2C[C@@H]2CNc2ccc(F)cc2)cc1 [Example 3, ±trans 4-(2-{[(4-fluorophenyl)amino]methyl}cyclopropyl)benzenesulfonamide] | 969% | I | 62 % control | –
CC1(C)[C@@H](CNc2ccc(F)cc2OC(F)F)[C@@H]1c1ccc(S(N)(=O)=O)cc1 [Example 50, 4-[(1S,3S)-3-({[2-(difluoromethoxy)-4-fluorophenyl]amino}methyl)-2,2-dimethylcyclopropyl]benzenesulfonamide] | – | II | 77 % control | –
CC1(C)[C@H](CNc2ccc(F)cc2OC(F)F)[C@H]1c1ccc(S(N)(=O)=O)cc1 [Example 51, 4-[(1R,3R)-3-({[2-(difluoromethoxy)-4-fluorophenyl]amino}methyl)-2,2-dimethylcyclopropyl]benzenesulfonamide] | 171% | I | 81 % control | –
CC1(C)[C@@H](CNc2ccc(F)cc2C(F)(F)F)[C@@H]1c1ccc(S(N)(=O)=O)cc1 [Example 17, 4-[(1S,3S)-3-({[4-fluoro-2-(trifluoromethyl)phenyl]amino}methyl)-2,2-dimethylcyclopropyl]benzenesulfonamide] | – | I | 100 % control | –
CC1(C)[C@H](CNc2ccc(F)cc2)[C@H]1c1ccc(S(N)(=O)=O)cc1 [Example 13, ±trans 4-[3-{[(4-fluorophenyl)amino]methyl}-2,2-dimethylcyclopropyl]benzenesulfonamide] | – | II | 80 % control | –
COc1ccc(Cl)cc1NC[C@@H]1[C@@H](c2ccc(S(N)(=O)=O)cc2)C1(C)C [Example 20, 4-[(1R,3R)-3-{[(5-chloro-2-methoxyphenyl)amino]methyl}-2,2-dimethylcyclopropyl]benzenesulfonamide] | – | I | 100 % control | –
COc1ccc(Cl)cc1NC[C@H]1[C@H](c2ccc(S(N)(=O)=O)cc2)C1(C)C [Example 21, 4-[(1S,3S)-3-{[(5-chloro-2-methoxyphenyl)amino]methyl}-2,2-dimethylcyclopropyl]benzenesulfonamide] | – | II | 100 % control | –
Cc1cc(F)c(F)cc1NC[C@@H]1[C@@H](c2ccc(S(N)(=O)=O)cc2)C1(C)C [Example 30, 4-[(1R,3R)-3-{[(4,5-difluoro-2-methylphenyl)amino]methyl}-2,2-dimethylcyclopropyl]benzenesulfonamide] | 419% | I | 70 % control | 210 to 212 °C
COc1ncccc1NC[C@@H]1[C@@H](c2ccc(S(N)(=O)=O)cc2)C1(C)C [Example 42, ±trans 4-(3-{[(2-methoxypyridin-3-yl)amino]methyl}-2,2-dimethylcyclopropyl)benzenesulfonamide] | – | II | – | 98 to 100 °C
